Measured values: article PMC11546786, “Designing Analogs of SAAP-148 with Enhanced Antimicrobial and Anti-LPS Activities” (International Journal of Molecular Sciences, 2024)
Ends that are not written are not given here.

Key:
[1] = Reversed-phase HPLC retention time as measure of peptide hydrophobicity; assay type: physicochemical; details: retention time by reverse-phase HPLC, reflects hydrophobicity difference between analogues
Excerpt: The physicochemical parameters crucial for the antimicrobial activity of AMPs have been identified, encompassing net charge, helicity, hydrophobicity, and amphipathicity. The hydropathicity, mean relative hydrophobic moment, and charge of peptides were predicted using the HeliQuest (https://heliquest.ipmc.cnrs.fr/ (accessed on 12 March 2024)). Lysine is a hydrophilic amino acid, and its substitution leads to a decrease in the hydrophobicity of the SAAP-148 analogue. The anticipated results are consistent, with the degree of reduction in […] varying depending on the position at which lysine is substituted (Table 2). The amphipathicity of the peptides, as denoted by the μH (mean relative hydrophobic moment), is elaborated on in Table 2. The hydrophobic moment of SAAP-148 analogues was decreased except for SAAP-10, which is on account of the substitution occurring on the18th residue. (Figure 1) The 18th residue of SAAP-148 is glutamine, a polar amino acid residue, located at the junction of the hydrophobic and hydrophilic surfaces of the SAAP-148 α-helix. […] The retention time data determined by reversed-phase high-performance liquid chromatography (RP-HPLC) reflects the hydrophobicity difference between peptide analogues. It is well documented that the formation of a hydrophobic-binding domain due to peptide secondary structure can affect peptide interactions with reversed-phase matrices. This effect was observed particularly for amphipathic α-helical peptides. Given this preferred binding domain, amphipathic α-helical peptides are considerably more retentive than non-amphipathic peptides with the same amino acid composition.
This phenomenon was particularly evident in the case of amphipathic α-helical peptides. […] This discrepancy may be attributed to the lack of a well-defined α-helical structure in SAAP-148 and its analogues (Figure S1).

[2] = system: Escherichia coli (1.8732); assay type: cell-based
Excerpt: (§1) The LL-37, SAAP-148 and its analogues peptides were synthesized according to the standard Fmoc procedure. The Fmoc-protected resin and monomers are first treated with a basic solvent (piperidine) to remove the amino protecting groups. The carboxyl group of the next amino acid is activated by an activator. The activated monomer reacts with the free amino group to form a peptide bond. These two steps are repeated in a cycle until the synthesis is complete. After synthesis, the peptide is eluted from the column and purified by reverse-phase semipreparative high-performance liquid chromatography as detailed in Table 1. The peptides were dissolved in PBS to create a 1000 μmol/L stock solution for subsequent use. The purity of the synthetic peptide exceeded 95%. Blood samples from healthy donors were obtained from the Fifth Medical Center of Chinese PLA General Hospital (Beijing, China). Human normal lung epithelial cells (BEAS-2B) and mouse mononuclear macrophages cells (RAW 264.7) were sourced from Beyotime Biotechnology (Beijing, China), along with the Enhanced Cell Counting Kit-8 (CCK-8) and nitric oxide detection kit. RPMI-1640 and DMEM were procured from Merck (Darmstadt, Germany), while FBS was obtained from ExCell Bio (Shanghai, China). LPS-B5 (from E. coli 055:B5) was procured from Invivogen (Toulouse, France). Five bacterial strains, including Escherichia coli (1.8732), Pseudomonas aeruginosa (1.2421), Klebsiella pneumonia (1.1736) as Gram-negative bacteria, and Staphylococcus aureus (1.8721) and Staphylococcus epidermidis (1.4260) as Gram-positive bacteria, were procured from the China General Microbiological Culture Collection Centre (CGMCC) (Beijing, China).
(§2) The antibacterial activities of the peptides against […] were evaluated using a modified version of the Clinical Laboratory and Standards Institute (CLSI) broth microdilution method, as previously described. Briefly, the bacteria were cultured in liquid LB medium (comprising 10 g/L tryptone, 5 g/L yeast extract, and 10 g/L NaCl) at 37 °C until reaching mid-log phase. Subsequently, the bacterial concentration was adjusted to 1 × 10^6 colony-forming units (CFU)/mL. The peptides were then diluted serially with phosphate-buffered saline (PBS), followed by the addition of 50 μL of the diluted peptides to 50 μL of the bacterial suspension in a 96-well plate (Corning Inc., Lowell, MA, USA). After incubating at 37 °C for 18 to 20 h, the absorbance of each well was measured using a multi-well microplate reader (SpectraMax M5; Molecular Devices, Sunnyvale, CA, USA) at 600 nm.

[3] = system: Pseudomonas aeruginosa (1.2421); assay type: cell-based
Excerpt: as §1, §2

[4] = system: Staphylococcus aureus (1.8721); assay type: cell-based
Excerpt: as §1, §2

[5] = system: Staphylococcus epidermidis (1.4260); assay type: cell-based
Excerpt: as §1, §2

[6] = system: Klebsiella pneumonia (1.1736); assay type: cell-based, Klebsiella pneumoniae
Excerpt: as §1, §2

[7] = system: Gram-negative bacteria (E. coli, P. aeruginosa, K. pneumoniae); test: Geometric mean of MICs against Gram-negative bacteria; assay type: cell-based; set-up: unit not given here
Protocol: as §2

[8] = system: Gram-positive bacteria (S. aureus, S. epidermidis); test: Geometric mean of MICs against Gram-positive bacteria; assay type: cell-based; set-up: unit not given here
Protocol: as §2

five bacterial strains = test: MICs against all five bacterial strains (geometric mean, range); assay type: cell-based; set-up: unit not given here; details: geometric mean of MICs against all five bacterial strains
Protocol: as §2

[9] = system: human erythrocytes versus five bacterial strains; test: Therapeutic index (MHC/GM of MIC); details: for Fold (TI of analogue compared with SAAP-148): TI change relative to SAAP-148; for TI (MHC/MIC): ratio of MHC to geometric mean of MIC (five strains)
Protocol: The geometric mean of minimum inhibitory concentration (MIC) values (GM) from the five strains was calculated to provide a comprehensive assessment of antimicrobial activity, as presented in Table 4.
The therapeutic index (TI) is a widely utilized parameter for indicating the specificity of antimicrobial agents, which is determined by the ratio of MHC (hemolytic activity) and MIC (antimicrobial activity). Consequently, larger TI values signify greater antimicrobial specificity. The TI can be enhanced through one of three mechanisms: increasing antimicrobial activity, reducing hemolytic activity while maintaining antimicrobial activity, or a combination of both augmenting antimicrobial activity and diminishing hemolytic activity.

[10] = CD spectra, secondary structure by BeStSel; assay type: physicochemical; details: 30 μM SDS as printed, 100 μM peptide, 25 °C
Protocol: CD spectra (Figure S1) were acquired using a JASCO J-1500 spectropolarimeter (JASCO Inc., Easton, MD, USA) in 0.1 cm pathlength cells under nitrogen at 25 °C. The spectra were recorded in the range of 190 to 250 nm at a peptide concentration of 100 μM in SDS. Secondary structure was determined using the BeStSel server. Hydropathicity, mean relative hydrophobic moment, and charge of peptides were predicted using the HeliQuest (https://heliquest.ipmc.cnrs.fr/ (accessed on 12 March 2024)). The 3D structure of SAAP-148 and its analogues (Figure S2) was predicted using PEP-FOLD4 servers (https://bioserv.rpbs.univ-paris-diderot.fr/services/PEP-FOLD4/ (accessed on 19 June 2024)).

Substance: LKRVKKRVFKLLKRYWRQLKKPVR-NH2 [SAAP-3]
- Rt [1]: 11.208 min
- MIC E. coli [2]: 1.56 µM
- MIC P. aeruginosa [3]: 3.13 µM
- MIC S. aureus [4]: 100.00 µM
- MIC S. epidermidis [5]: 3.13 µM
- MIC K. pneumoniae [6]: 6.25 µM
- GM to G− [7]: 3.12
- GM to G+ [8]: 17.69
- MIC (GM) (five bacterial strains): 6.25
- Fold (TI of analogue compared with SAAP-148) [9]: 72.73
- TI (MHC/MIC) [9]: 8.00
- Others [10]: 0%
- Turn [10]: 0%
- α-Helix [10]: 100%
- β-Antiparallel [10]: 0%
- β-Parallel [10]: 0%

Substance: LKRVWKRVFKLLKRYWRQLKKPKR-NH2 [SAAP-13]
- Rt [1]: 16.867 min
- MIC E. coli [2]: 6.25 µM
- MIC P. aeruginosa [3]: 12.50 µM
- MIC S. aureus [4]: 50.00 µM
- MIC S. epidermidis [5]: 6.25 µM
- MIC K. pneumoniae [6]: 25.00 µM
- GM to G− [7]: 12.5
- GM to G+ [8]: 17.68
- MIC (GM) (five bacterial strains): 14.36
- Fold (TI of analogue compared with SAAP-148) [9]: 0.45
- TI (MHC/MIC) [9]: 0.05
- Others [10]: 1.2%
- Turn [10]: 0%
- α-Helix [10]: 98.8%
- β-Antiparallel [10]: 0%
- β-Parallel [10]: 0%

Substance: LKRVWKRVFKLLKRYWRQKKKPVR-NH2 [SAAP-11]
- Rt [1]: 15.926 min
- MIC E. coli [2]: 6.25 µM
- MIC P. aeruginosa [3]: 6.25 µM
- MIC S. aureus [4]: 50.00 µM
- MIC S. epidermidis [5]: 3.13 µM
- MIC K. pneumoniae [6]: 100.00 µM
- GM to G− [7]: 15.75
- GM to G+ [8]: 12.51
- MIC (GM) (five bacterial strains): 14.36
- Fold (TI of analogue compared with SAAP-148) [9]: 0.45
- TI (MHC/MIC) [9]: 0.05
- Others [10]: 0%
- Turn [10]: 0%
- α-Helix [10]: 100%
- β-Antiparallel [10]: 0%
- β-Parallel [10]: 0%

Substance: LKRVWKRVFKLLKRYKRQLKKPVR-NH2 [SAAP-9]
- Rt [1]: 11.941 min
- MIC E. coli [2]: 3.13 µM
- MIC P. aeruginosa [3]: 1.56 µM
- MIC S. aureus [4]: 50.00 µM
- MIC S. epidermidis [5]: 3.13 µM
- MIC K. pneumoniae [6]: 12.50 µM
- GM to G− [7]: 3.94
- GM to G+ [8]: 12.51
- MIC (GM) (five bacterial strains): 6.25
- Fold (TI of analogue compared with SAAP-148) [9]: 9.09
- TI (MHC/MIC) [9]: 1.00
- Others [10]: 0%
- Turn [10]: 0%
- α-Helix [10]: 100%
- β-Antiparallel [10]: 0%
- β-Parallel [10]: 0%

Substance: LKRVWKRVKKLLKRYWRQLKKPVR-NH2 [SAAP-5]
- Rt [1]: 10.681 min
- MIC E. coli [2]: 1.56 µM
- MIC P. aeruginosa [3]: 6.25 µM
- MIC S. aureus [4]: 25.00 µM
- MIC S. epidermidis [5]: 3.13 µM
- MIC K. pneumoniae [6]: 6.25 µM
- GM to G− [7]: 3.94
- GM to G+ [8]: 8.85
- MIC (GM) (five bacterial strains): 5.44
- Fold (TI of analogue compared with SAAP-148) [9]: 10.45
- TI (MHC/MIC) [9]: 1.15
- Others [10]: 0%
- Turn [10]: 0%
- α-Helix [10]: 100%
- β-Antiparallel [10]: 0%
- β-Parallel [10]: 0%

Substance: LKRVWKRVFKLLKRKWRQLKKPVR-NH2 [SAAP-8]
- Rt [1]: 13.475 min
- MIC E. coli [2]: 1.56 µM
- MIC P. aeruginosa [3]: 1.56 µM
- MIC S. aureus [4]: 25.00 µM
- MIC S. epidermidis [5]: 1.56 µM
- MIC K. pneumoniae [6]: 25.00 µM
- GM to G− [7]: 3.93
- GM to G+ [8]: 6.24
- MIC (GM) (five bacterial strains): 4.74
- Fold (TI of analogue compared with SAAP-148) [9]: 6
- TI (MHC/MIC) [9]: 0.66
- Others [10]: 0%
- Turn [10]: 0%
- α-Helix [10]: 100%
- β-Antiparallel [10]: 0%
- β-Parallel [10]: 0%

Substance: LKRVWKRVFKKLKRYWRQLKKPVR-NH2 [SAAP-6]
- Rt [1]: 9.213 min
- MIC E. coli [2]: 1.56 µM
- MIC P. aeruginosa [3]: 1.56 µM
- MIC S. aureus [4]: 25.00 µM
- MIC S. epidermidis [5]: 1.56 µM
- MIC K. pneumoniae [6]: 6.25 µM
- GM to G− [7]: 2.48
- GM to G+ [8]: 6.24
- MIC (GM) (five bacterial strains): 3.59
- Fold (TI of analogue compared with SAAP-148) [9]: 15.82
- TI (MHC/MIC) [9]: 1.74
- Others [10]: 0%
- Turn [10]: 0%
- α-Helix [10]: 84.4%
- β-Antiparallel [10]: 15.6%
- β-Parallel [10]: 0%
